± gives the standard deviation of the averaged measurements.
Tested on: HepaRG
Assay: LDH release cytotoxicity, % of total lysis control; higher = more cytotoxic
Details: 48 h
In short: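 Single-lot HepaRG cells in collagen I-coated 96-well plates were treated for 48 h in serum-free induction medium containing 0.5% DMSO with test chemicals in eight-point half-log series up to 100 µM. For total lysis, wells received 0.1% Triton X. LDH in 50 µL spent medium was assayed by resorufin fluorescence with CytoTox-ONE. Percent cytotoxicity was normalized to the on-plate vehicle and total lysis controls, with duplicates averaged.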

Compound | LDH release cytotoxicity (0.03162 µM) [%] | LDH release cytotoxicity (0.1 µM) [%] | LDH release cytotoxicity (0.3162278 µM) [%] | LDH release cytotoxicity (1 µM) [%] | LDH release cytotoxicity (3.16228 µM) [%] | LDH release cytotoxicity (10 µM) [%] | LDH release cytotoxicity (31.6228 µM) [%] | LDH release cytotoxicity (100 µM) [%] | also measured
O=C(O)CCCCC(=O)O [Hexanedioic acid] | -0.567 ± 0.22 | -0.838 ± 0.079 | -1.43 ± 1.4 | -1.17 ± 0.34 | -1.55 ± 0.028 | -0.895 ± 0.82 | -1.25 ± 0.29 | 0.446 ± 0.27 | 
O=S(=O)(O)C(F)(F)C(F)(F)C(F)(F)C(F)(F)C(F)(F)C(F)(F)C(F)(F)C(F)(F)F [Potassium perfluorooctanesulfonate] |  |  |  |  |  |  |  |  | LDH release cytotoxicity (0.03036 µM): -2.82 ± 0.99%; LDH release cytotoxicity (0.096 µM): -1.72 ± 1.2%; LDH release cytotoxicity (0.303579 µM): -2.71 ± 0.49%; LDH release cytotoxicity (0.96 µM): -2.314 ± 0.0065%; LDH release cytotoxicity (3.03579 µM): -2.44 ± 0.43%; LDH release cytotoxicity (9.6 µM): -1.36 ± 0.89%; LDH release cytotoxicity (30.3579 µM): -1.03 ± 0.88%; LDH release cytotoxicity (96 µM): 27.2 ± 1.1%
Clc1cccc(Cl)c1 [1,3-Dichlorobenzene] | -0.441 ± 1.9 | -1.62 ± 0.022 | -0.906 ± 0.34 | -1.05 ± 0.054 | -1.07 ± 0.023 | 0.199 ± 1.1 | 3.191 ± 0.028 | 25.9 ± 0.28 | 
CCCCCCOCCO [2-Hexyloxyethanol] | -0.677 ± 0.42 | -1.05 ± 0.26 | -0.605 ± 0.04 | -0.402 ± 0.99 | -1.19 ± 0.28 | 0.932 ± 0.059 | 0.572 ± 0.76 | 47.6 ± 2.2 | 
COc1cccc(C(O)C2CCN(CCc3ccc(F)cc3)CC2)c1OC (configuration not stated) [Volinanserin] | -0.377 ± 0.72 | -1.03 ± 1.4 | 0.298 ± 1.8 | -0.566 ± 0.98 | -0.0858 ± 0.33 | -1.21 ± 0.87 | 0.408 ± 1.3 | 7.12 ± 0.34 | 
CC1OC=CC(=O)C1=O (configuration not stated) [Maltol] |  |  |  |  |  |  |  |  | LDH release cytotoxicity (0.032888 µM): -1.82 ± 0.089%; LDH release cytotoxicity (0.104 µM): -1.46 ± 1.1%; LDH release cytotoxicity (0.328877 µM): -2.18 ± 0.095%; LDH release cytotoxicity (1.04 µM): -3.62 ± 0.59%; LDH release cytotoxicity (3.28877 µM): -2.64 ± 0.45%; LDH release cytotoxicity (10.4 µM): -1.92 ± 0.23%; LDH release cytotoxicity (32.8877 µM): -1.627 ± 0.0032%; LDH release cytotoxicity (104 µM): 0.353 ± 0.45%
Nc1ccc([N+](=O)[O-])cc1 [4-Nitroaniline] | -1.77 ± 1.4 | -2.08 ± 0.69 | -1.811 ± 0.018 | -1.58 ± 0.75 | -1.84 ± 0.43 | -0.905 ± 0.22 | 0.842 ± 1.3 | -0.219 ± 0.45 | 
OCC(CO)(CO)CO [Pentaerythritol] | -0.674 ± 0.59 | -1.13 ± 0.089 | -1.3 ± 0.092 | -1.89 ± 1 | -0.206 ± 1.4 | -1.15 ± 0.98 | -0.431 ± 0.65 | 0.764 ± 0.28 | 
CC(C)(C)c1csc(-c2cc3cc(OCc4ccccc4CC(=O)O)ccc3o2)n1 |  | -2.14 ± 0.54 |  | -2.18 ± 0.68 | -2.37 ± 0.089 | -3.649 ± 0.015 | -2.7 ± 0.72 | 64 ± 7 | LDH release cytotoxicity (0.031623 µM): 1.06 ± 0.28%; LDH release cytotoxicity (0.316228 µM): -2.66 ± 0.65%
CCCCCCOC(=O)c1ccccc1C(=O)OCCCCCC [Dihexyl phthalate] | -0.113 ± 0.13 | -2.29 ± 0.55 | -1.07 ± 0.072 | -1.78 ± 0.38 | -2.06 ± 0.53 | 4.57 ± 0.29 | 25.3 ± 3.5 | 81 ± 8.9 | 
O=c1n(CC2CO2)c(=O)n(CC2CO2)c(=O)n1CC1CO1 (configuration not stated) [Tris(2,3-epoxypropyl)isocyanurate] | 0.512 ± 0.2 | 0.218 ± 0.46 | 0.217 ± 0.89 | 0.322 ± 0.34 | -0.576 ± 0.33 | 0.383 ± 0.033 | 0.616 ± 0.68 | 1.86 ± 0.47 | 
CC1CN(N=Cc2cccnc2)C(=O)N=N1 (configuration not stated) [Pymetrozine] | 4.48 ± 0.29 | 4.64 ± 1.1 | 4.33 ± 1.2 | 3.28 ± 0.56 | 5.3 ± 1.3 | 4.29 ± 1.6 | 6.57 ± 0.73 | 9.47 ± 2.1 | 
CCC(=O)OC1CCC2C3CCC4=CC(=O)CCC4(C)C3CCC12C (configuration not stated) [Testosterone propionate] | -1.39 ± 0.61 | -0.545 ± 0.63 | -1.1 ± 0.026 | -1.85 ± 0.12 | -1.06 ± 0.29 | -1.07 ± 0.27 | -0.42 ± 0.67 | -0.461 ± 0.24 | 
Oc1ccc2ccccc2c1 [2-Naphthalenol] | -0.471 ± 0.51 | -0.55 ± 0.25 | -0.787 ± 0.15 | -0.57 ± 0.2 | -0.679 ± 0.39 | -0.106 ± 0.093 | 0.851 ± 0.3 | 13.8 ± 0.73 | 
CCCCCCCCN(C)C [N,N-Dimethyloctylamine] |  |  |  |  |  |  |  |  | LDH release cytotoxicity (0.031939 µM): -1.23 ± 0.93%; LDH release cytotoxicity (0.101 µM): -0.78 ± 0.02%; LDH release cytotoxicity (0.31939 µM): -2.01 ± 1.1%; LDH release cytotoxicity (1.01 µM): -1.97 ± 1.2%; LDH release cytotoxicity (3.1939004 µM): -1.09 ± 0.4%; LDH release cytotoxicity (10.1 µM): -1.35 ± 0.46%; LDH release cytotoxicity (31.939 µM): -0.557 ± 0.49%; LDH release cytotoxicity (101 µM): 2.22 ± 0.066%
COP(=S)(OC)Oc1ccc(SC)c(C)c1 [Fenthion] | -0.428 ± 0.68 | -0.733 ± 0.38 | -0.879 ± 0.25 | -0.217 ± 1 | -0.561 ± 0.56 | 0.173 ± 0.094 | 0.52 ± 0.028 | 2.37 ± 0.83 | 
O=C(NS(=O)(=O)C=Cc1cccs1)c1ccc(F)cc1Br | -1.33 ± 0.59 | -1.47 ± 0.055 | -1.39 ± 0.25 | -2.27 ± 0.8 | -1.8 ± 0.55 | -1.418 ± 0.0065 | -0.73 ± 0.11 | -0.319 ± 0.11 | 
CCCCC(CC)COC(=O)CCCCC(=O)OCc1ccccc1 (configuration not stated) [Benzyloctyl adipate] | -0.155 ± 0.27 | -0.43 ± 0.37 | 0.101 ± 0.76 | -0.128 ± 1.1 | 1.13 ± 0.71 | 0.566 ± 0.22 | 0.4 ± 0.39 | 1.95 ± 0.065 | 
Nc1nc(N)c2nc(CNc3ccc(C(=O)NC(CCC(=O)O)C(=O)O)cc3)cnc2n1 (configuration not stated) [Aminopterin] | -11.8 ± 0.096 | -7.61 ± 0.6 | -7.45 ± 1.3 | -7.83 ± 0.65 | -7.31 ± 0.2 | -9.44 ± 0.67 | -9.84 ± 0.9 | -9.19 ± 0.42 | 
C=CCOC(=O)c1ccccc1C(=O)OCC=C [Diallyl phthalate] | 0.139 ± 0.96 | 0.0319 ± 0.41 | -0.423 ± 1.2 | -0.76 ± 0.22 | -0.551 ± 0.21 | 0.184 ± 0.77 | -0.538 ± 0.2 | 0.377 ± 0.38 | 
Cc1nc(C)nc(N2CC(C)N(c3ccnc(C(C)O)n3)C(C)C2)n1 (configuration not stated) |  |  |  |  |  |  |  |  | LDH release cytotoxicity (0.01581 µM): -1.17 ± 0.94%; LDH release cytotoxicity (0.05 µM): -0.963 ± 0.92%; LDH release cytotoxicity (0.1581139 µM): -1.7 ± 1%; LDH release cytotoxicity (0.5 µM): -1.95 ± 0.69%; LDH release cytotoxicity (1.5811388 µM): -0.835 ± 0.61%; LDH release cytotoxicity (5 µM): -1.01 ± 0.15%; LDH release cytotoxicity (15.8114 µM): -0.652 ± 0.091%; LDH release cytotoxicity (50 µM): 0.767 ± 0.63%
CC(C)CCCCCCCOC(=O)CCCCC(=O)OCCCCCCCC(C)C [Diisodecyl hexanedioate] | -0.938 ± 0.57 | -1.86 ± 0.81 | -1.91 ± 0.57 | -1.58 ± 0.48 | -1.63 ± 0.72 | -1.13 ± 0.48 | -0.135 ± 0.66 | 0.966 ± 0.73 | 
FC(F)C(F)(F)OCC(Cn1cncn1)c1ccc(Cl)cc1Cl (configuration not stated) [Tetraconazole] |  |  |  |  |  |  |  |  | LDH release cytotoxicity (0.0314647 µM): -0.665 ± 0.72%; LDH release cytotoxicity (0.0995 µM): -2.23 ± 0.2%; LDH release cytotoxicity (0.3146466 µM): -1.54 ± 0.36%; LDH release cytotoxicity (0.995 µM): -2.38 ± 0.84%; LDH release cytotoxicity (3.14647 µM): -2.48 ± 0.21%; LDH release cytotoxicity (9.95 µM): -2.1 ± 0.41%; LDH release cytotoxicity (31.4647 µM): 1.5 ± 0.2%; LDH release cytotoxicity (99.5 µM): 52.5 ± 4.9%
CCCN(CCC)c1c([N+](=O)[O-])cc(C(F)(F)F)c(N)c1[N+](=O)[O-] [Prodiamine] | -2.33 ± 0.34 | -1.51 ± 1.1 | -2.72 ± 0.29 | -3.4 ± 1.3 | 0.15 ± 1.8 | -1.16 ± 0.42 | -0.459 ± 0.57 | 8.35 ± 0.43 | 
Oc1cc(Cl)c(Cl)cc1Cl [2,4,5-Trichlorophenol] | -1.03 ± 1.1 | -1.29 ± 0.21 | -1.7 ± 1.3 | -1.77 ± 0.63 | -1.83 ± 0.36 | -1.75 ± 0.2 | -1.87 ± 1.3 | -0.358 ± 0.97 | 
CCCCc1nc2cccnc2n1Cc1ccc(-c2ccccc2-c2nnn[nH]2)cc1 | -0.82 ± 0.17 | -1.42 ± 0.13 | -0.874 ± 0.059 | -0.211 ± 0.38 | -0.956 ± 0.67 | -0.404 ± 0.78 | -0.609 ± 1.2 | 1.6 ± 1.9 | 
CCOC(=O)C(Cl)Cc1cc(-n2nc(C)n(C(F)F)c2=O)c(F)cc1Cl (configuration not stated) [Carfentrazone-ethyl] | -0.276 ± 0.32 | -1.32 ± 0.6 | -0.782 ± 0.36 | -0.573 ± 0.12 | -0.524 ± 0.13 | -0.0179 ± 0.2 | -0.285 ± 0.48 | 1.22 ± 0.5 | 
O=C(O)CN(CC(=O)O)CC(=O)O [Nitrilotriacetic acid] | -0.992 ± 1.1 | -2.54 ± 0.17 | -2.46 ± 0.55 | -2.18 ± 1.1 | -1.64 ± 0.13 | -2.38 ± 0.72 | -1.51 ± 0.34 | -0.286 ± 0.059 | 
CNC1CCC(c2ccc(Cl)c(Cl)c2)c2ccc(S(N)(=O)=O)cc21 (configuration not stated) | -1.64 ± 0.43 | -2.15 ± 0.55 | -1.81 ± 0.055 | -1.88 ± 0.57 | -1.12 ± 0.32 | -0.337 ± 0.06 | 15 ± 0.65 | 81.4 ± 3.4 | 
